Experimental data: ChEMBL document CHEMBL3745633, “Synthesis of the biotinylated anti-HIV compound BMMP and the target identification study” (Bioorg Med Chem Lett, 2016)
The source made the active and inactive calls. No cut-off for these calls is given here.

What was measured:
[1] = system: Human immunodeficiency virus 1; test: Antiviral activity against HIV-1 NL4-3 infected in human M8166 cells assessed as inhibition of viral replication at 20 uM after 5 days by p24 ELISA; assay type: functional, organism-based
HEK-293T [2] = test: Binding affinity to HIV-1 NL4-3 capsid protein expressed in HEK293T cells by surface plasmon resonance analysis; settings: Human immunodeficiency virus 1
HEK-293T [3] = test: Binding affinity to HIV-1 NL4-3 Pr55Gag expressed in HEK293T cells by surface plasmon resonance analysis; settings: Human immunodeficiency virus 1

For `COC(=O)CCCC[C@@H]1SC[C@@H]2NC(=O)N[C@@H]21`, which inhibition [1] is on record?
The inhibition was “inactive”.

With `Cc1ccnc(SCc2nc3ccccc3s2)n1` as the compound, how does the inhibition [1] read?
The inhibition was “Active”.

With `O=C(CCCC[C@@H]1SC[C@@H]2NC(=O)N[C@@H]21)NCCCCCCc1ccnc(SCc2nc3ccccc3s2)n1` as the compound, how does the inhibition [1] read?
The inhibition was “Active”.

And the Activity (HEK-293T [2])?
The Activity was “inactive”.

What about the Activity (HEK-293T [3]) of the same compound?
The Activity was “inactive”.

How did the inhibition [1] turn out when `NCCCCCCc1ccnc(SCc2nc3ccccc3s2)n1` was run?
The inhibition was “Active”.
